Assay results reported in patent publication US20230241071A1, “COMBINATION TREATMENT OF LIVER DISORDERS” (Terns Pharmaceuticals, Inc., priority 2021, published 2023).
Where “and” joins values, the source holds several entries; their conditions need not be identical. Identical values can stand only once. Entries after “also recorded” stand apart in the source; their conditions may differ.

Key:
DIO-GAN NASH mouse model = experiment: Biopsy-confirmed DIO-GAN NASH mice, 12 weeks mono- and combination treatment; assay type: in vivo; details: for hepatomegaly (liver weight) / spleen weight / total cholesterol (plasma): vs DIO-GAN vehicle control; for plasma triglycerides: Compound 2-high 10 mg/kg, combinations; for α-SMA (IHC), marker of hepatic stellate cell activation: Compound 3, Compound 2-low and -med, Combo-low
From the text: C57BL/6JRj male mice (n=138) were fed the Gubra Amylin NASH (GAN) diet (40% fat, 22% fructose, 2% cholesterol [D09100310, Research Diets]) or lean chow diet for 35 weeks before treatment start. Prior to treatment all animals underwent liver biopsy for histological confirmation (steatosis score ≥2 and fibrosis stage ≥1) and stratification using the nonalcoholic fatty liver disease (NAFLD) activity scoring (NAS) and fibrosis staging system. The diet-induced obese mice on GAN diet (DIO-GAN) were randomized to 8 treatment groups […] based on percent-area of picrosirius red (PSR) staining. DIO-GAN mice (n=16 per group) received treatment (PO, QD) for 12 weeks with vehicle (0.5% HPMC+0.2% Tween-80 in Tris buffer [50 mM, pH 8]), Compound 3 (10 mg/kg), Compound 2 (0.3 mg/kg [low], 2 mg/kg [med], or 10 mg/kg [high]), or combination treatments of Compound 3 with Compound 2 (Combo-low, Combo-med or Combo-high). Vehicle-dosed lean chow-fed controls served as healthy controls (n=10). Mice were maintained on their respective diets (GAN or lean chow) for the duration of the study. Within-subject comparisons (pre- vs. post-treatment) were performed for liver biopsy histopathological scores. Terminal quantitative endpoints included plasma/liver biochemistry, liver histomorphometry, and liver transcriptomic analysis by RNAseq.
Formalin-fixed paraffin-embedded (FFPE) liver biopsies were prepared by placing liver samples into 10% neutral buffered formalin for ˜24 hours and then transferred to 70% ethanol prior to storage at 4 C. FFPE were placed in the Histokinette to infiltrate prior to embedding in blocks. Biopsy tissues were then cut at 3 μm using a microtome and sections were mounted on slides. Liver sections were stained with Hematoxylin and Eosin (H&E) to assess steatosis, inflammation, and ballooning, and PSR to assess fibrosis. Additionally, slides were processed to detect type I collagen (Col1a1), galectin-3 (Gal-3), and smooth muscle actin (α-SMA) protein expression by immunohistochemistry (IHC). For H&E staining, slides were incubated in Mayer's Hematoxylin (Dako), washed with tap water, stained in Eosin Y solution (Sigma-Aldrich), dehydrated, and coverslipped. For PSR, slides were incubated in Weigert's iron hematoxylin (Sigma-Aldrich), washed in tap water, stained in Picro-sirius red (Sigma-Aldrich), and washed twice in acidified water. Excess water was removed by shaking the slides and the slides were then dehydrated with ethanol, cleared in xylene, and cover-slipped. The NAS and fibrosis stage were scored as described previously (Kleiner et al. 2005). NAS represents the unweighted sum of steatosis, inflammation, and ballooning scores and ranges for 0-8 (Table 26); fibrosis stage ranges from 0 (no fibrosis) to 4 (cirrhosis). For detection of Col1a1, Gal-3 and α-SMA, IHC was performed by standard procedures. Briefly, after antigen retrieval and blocking of endogenous peroxidase activity, slides were incubated with primary antibody (Col1a1: Southern Biotech, Cat. 1310-01; Gal-3: Biolegend, Cat. 125402; α-SMA: Abcam Cat. Ab124964). Primary antibody was detected using a polymeric HRP-linker antibody conjugate. Primary antibody was visualized with DAB as chromogen. Finally, sections were counterstained in hematoxylin and cover-slipped.
Terminal blood was harvested by cardiac puncture from mice anesthetized with isoflurane (2-3%), mixed with anticoagulant, and placed at 4 C prior to centrifugation at 3000×g for 10 minutes. Plasma supernatants were transferred to new tubes and immediately frozen on dry ice and stored at −80 C. Alanine transaminase (ALT), Aspartate transaminase (AST), Alkaline phosphatase (ALP), Triglycerides (TGs), Total Cholesterol (TC), High-density lipoprotein (HDL-c), and Low-density lipoprotein (LDL-c) were measured using commercial kits (Roche Diagnostics) on the Cobas c 501 autoanalyzer according to manufacturer's instructions. […]

[1] = Trough plasma compound levels in DIO-GAN mice; assay type: in vivo, mouse; details: plasma 21-24 h post final dose
Description: Terminal plasma samples were harvested by cardiac puncture approximately 21-24 hours after the last administration of compound(s). Terminal plasma samples were analyzed by high resolution LC-MS/MS using a Triple Quad 6500+ instrument. 20 μL of plasma sample was mixed with 200 μL of internal standard solution (100 ng/mL Labetalol+100 ng/mL Tolbutamide in acetonitrile), vortexed, and centrifuged at 4,000 rpm for 15 min at 4° C. […] The internal standard 1 (retention time: 0.87 min) and standard 2 (retention time: 0.96 min) were used for quantification of Compound 3 (retention time: 0.87 min) and Compound 2 (retention time: 0.97 min), respectively. The internal standard (retention time: 0.76 min), was used for quantification of the glucuronide metabolite of Compound 3 (retention time: 0.77 min). Calibration curves (1-3000 ng/mL) were generated in a matrix of mouse plasma (pooled vehicle control) for each analyte.

[2] = 12 wk PO QD, Compound 3 10 mg/kg
[3] = 12 wk PO QD, high: Compound 2 10 mg/kg, alone or (Combo) + Compound 3 10 mg/kg
[4] = 12 wk PO QD, high: Compound 2 10 mg/kg, alone or (Combo) + Compound 3 10 mg/kg, 10 mg/kg
[5] = 12 wk PO QD, low: Compound 2 0.3 mg/kg, alone or (Combo) + Compound 3 10 mg/kg
[6] = 12 wk PO QD, med: Compound 2 2 mg/kg, alone or (Combo) + Compound 3 10 mg/kg
[7] = group Combo-high, Compound 3 10 mg/kg + Compound 2 10 mg/kg (14)
[8] = group Combo-med, Compound 3 10 mg/kg + Compound 2 2 mg/kg (16)
[9] = 12 wk PO QD, single agent 10 mg/kg

SMILES: N#Cc1nn(-c2cc(Cl)c(Oc3n[nH]c(=O)c4ccccc34)c(Cl)c2)c(=O)[nH]c1=O [Compound 2, 2-(3,5-dichloro-4-((4-oxo-3,4-dihydrophthalazin-1-yl)oxy)phenyl)-3,5-dioxo-2,3,4,5-tetrahydro-1,2,4-triazine-6-carbonitrile]
- hepatomegaly (liver weight) (DIO-GAN NASH mouse model; 12 wk PO QD): significantly reduced hepatomegaly
- spleen weight (DIO-GAN NASH mouse model; 12 wk PO QD): without changes in spleen weight
- total cholesterol (plasma) (DIO-GAN NASH mouse model; 12 wk PO QD): significantly reduced total cholesterol
- ALT levels relative to DIO-GAN vehicle control (DIO-GAN NASH mouse model; 12 wk PO QD, Compound 2 low, med, and high): significantly reduced; also recorded: significantly lowered ALT levels
- plasma triglycerides (DIO-GAN NASH mouse model; [2]): significantly reduced plasma triglycerides
- α-SMA (IHC), marker of hepatic stellate cell activation (DIO-GAN NASH mouse model; 12 wk PO QD): Numeric reductions
- Histological steatosis score: mice improving 1-pt (DIO-GAN NASH mouse model; [3]): 75%
- Histological steatosis score: mice with no change (DIO-GAN NASH mouse model; [3]): 18.75%
- Liver fibrosis stage: mice improving (DIO-GAN NASH mouse model; [3]): 6.25%
- Liver fibrosis stage: mice with no change (DIO-GAN NASH mouse model; [3]): 68.75%
- Liver fibrosis stage: mice worsening (DIO-GAN NASH mouse model; [3]): 25%
- Lobular inflammation: mice improving (DIO-GAN NASH mouse model; [3]): 12.5%
- Lobular inflammation: mice with no change (DIO-GAN NASH mouse model; [3]): 56.25%
- Lobular inflammation: mice worsening (DIO-GAN NASH mouse model; [3]): 31.25%
- NAS: mice improving 1-pt (DIO-GAN NASH mouse model; [3]): 37.5%
- NAS: mice with no change (DIO-GAN NASH mouse model; [3]): 31.25%
- NAS: mice worsening ≥1-pt (DIO-GAN NASH mouse model; [3]): 6.25%
- Histological steatosis score: mice improving >2-pt (DIO-GAN NASH mouse model; [4]): 6.25%
- Histological steatosis score: mice improving, Total (at least 1-pt) (DIO-GAN NASH mouse model; [4]): 81% and 81.25%
- NAS: mice improving ≥2-pt (DIO-GAN NASH mouse model; [4]): 25%
- NAS: mice improving, Total (≥1-pt) (DIO-GAN NASH mouse model; [4]): 62% and 62.5%
- Histological steatosis score: mice improving 1-pt (DIO-GAN NASH mouse model; [5]): 25%
- Histological steatosis score: mice improving >2-pt (DIO-GAN NASH mouse model; [5]): 6.25%
- Histological steatosis score: mice improving, Total (at least 1-pt) (DIO-GAN NASH mouse model; [5]): 31% and 31.25%
- Histological steatosis score: mice with no change (DIO-GAN NASH mouse model; [5]): 68.75%
- Liver fibrosis stage: mice improving (DIO-GAN NASH mouse model; [5]): 6.25%
- Liver fibrosis stage: mice with no change (DIO-GAN NASH mouse model; [5]): 62.5%
- Liver fibrosis stage: mice worsening (DIO-GAN NASH mouse model; [5]): 31.25%
- Lobular inflammation: mice improving (DIO-GAN NASH mouse model; [5]): 6.25%
- Lobular inflammation: mice with no change (DIO-GAN NASH mouse model; [5]): 68.75%
- Lobular inflammation: mice worsening (DIO-GAN NASH mouse model; [5]): 25%
- NAS: mice improving 1-pt (DIO-GAN NASH mouse model; [5]): 31.25%
- NAS: mice improving ≥2-pt (DIO-GAN NASH mouse model; [5]): 0%
- NAS: mice improving, Total (≥1-pt) (DIO-GAN NASH mouse model; [5]): 31% and 31.25%
- NAS: mice with no change (DIO-GAN NASH mouse model; [5]): 56.25%
- NAS: mice worsening ≥1-pt (DIO-GAN NASH mouse model; [5]): 12.5%
- Histological steatosis score: mice improving 1-pt (DIO-GAN NASH mouse model; [6]): 40%
- Histological steatosis score: mice improving >2-pt (DIO-GAN NASH mouse model; [6]): 6.7%
- Histological steatosis score: mice improving, Total (at least 1-pt) (DIO-GAN NASH mouse model; [6]): 47% and 46.7%
- Histological steatosis score: mice with no change (DIO-GAN NASH mouse model; [6]): 53.33%
- Liver fibrosis stage: mice improving (DIO-GAN NASH mouse model; [6]): 13.33%
- Liver fibrosis stage: mice with no change (DIO-GAN NASH mouse model; [6]): 60%
- Liver fibrosis stage: mice worsening (DIO-GAN NASH mouse model; [6]): 26.7%
- Lobular inflammation: mice improving (DIO-GAN NASH mouse model; [6]): 6.7%
- Lobular inflammation: mice with no change (DIO-GAN NASH mouse model; [6]): 73.3%
- Lobular inflammation: mice worsening (DIO-GAN NASH mouse model; [6]): 20%
- NAS: mice improving 1-pt (DIO-GAN NASH mouse model; [6]): 20%
- NAS: mice improving ≥2-pt (DIO-GAN NASH mouse model; [6]): 7% and 6.7%
- NAS: mice improving, Total (≥1-pt) (DIO-GAN NASH mouse model; [6]): 27% and 26.7%
- NAS: mice with no change (DIO-GAN NASH mouse model; [6]): 73.33%
- NAS: mice worsening ≥1-pt (DIO-GAN NASH mouse model; [6]): 0%
- number of DEGs vs DIO-GAN vehicle control (DIO-GAN NASH mouse model; liver RNAseq, Compound 2-low (0.3 mg/kg)): 987
- Mean trough analyte concentration (SD) [1, 7]: 143.0 (87.9) ng/mL
- Mean trough analyte concentration (SD) [1, 8]: 49.5 (42.9) ng/mL
- Mean trough analyte concentration (SD) ([1]; group Compound 2-high 10 mg/kg (16)): 320.0 (189.9) ng/mL
- Mean trough analyte concentration (SD) ([1]; group Compound 2-med 2 mg/kg (15)): 135.5 (62.0) ng/mL

SMILES: Cn1cc(C(=O)O)c2ccc(N3CCC(OCc4c(-c5c(Cl)cccc5Cl)noc4C4CC4)CC3)cc21 [Compound 3]
- Gal-3 expression in the liver (IHC) relative to DIO-GAN vehicle control (DIO-GAN NASH mouse model; 12 wk PO QD): reduces expression of Galectin-3; also recorded: lower levels of Gal-3 expression
- body weight during the study (DIO-GAN NASH mouse model; 12 wk PO QD): reduced body weight; also recorded: decreased body weight
- hepatomegaly (liver weight) (DIO-GAN NASH mouse model; 12 wk PO QD): significantly reduced hepatomegaly
- spleen weight (DIO-GAN NASH mouse model; 12 wk PO QD): without changes in spleen weight
- total cholesterol (plasma) (DIO-GAN NASH mouse model; 12 wk PO QD): significantly reduced total cholesterol
- Histological steatosis score: mice improving 1-pt (DIO-GAN NASH mouse model; [2]): 81.25%
- Histological steatosis score: mice improving >2-pt (DIO-GAN NASH mouse model; [2]): 0%
- Histological steatosis score: mice with no change (DIO-GAN NASH mouse model; [2]): 18.75%
- Liver fibrosis stage: mice improving (DIO-GAN NASH mouse model; [2]): 6.25%
- Liver fibrosis stage: mice with no change (DIO-GAN NASH mouse model; [2]): 56.25%
- Liver fibrosis stage: mice worsening (DIO-GAN NASH mouse model; [2]): 37.5%
- Lobular inflammation: mice improving (DIO-GAN NASH mouse model; [2]): 0%
- Lobular inflammation: mice with no change (DIO-GAN NASH mouse model; [2]): 68.75%
- Lobular inflammation: mice worsening (DIO-GAN NASH mouse model; [2]): 31.25%
- plasma triglycerides (DIO-GAN NASH mouse model; [2]): significantly reduced plasma triglycerides
- Histological steatosis score: mice improving, Total (at least 1-pt) (DIO-GAN NASH mouse model; 12 wk PO QD, Compound 3 10 mg/kg, 10 mg/kg): 81% and 81.25%
- body weight at the end of study vs DIO-GAN vehicle control (DIO-GAN NASH mouse model; 12 wk PO QD, Compound 3 10 mg/kg, Combo = + Compound 2 0.3/2/10 mg/kg): significantly lower
- α-SMA (IHC), marker of hepatic stellate cell activation (DIO-GAN NASH mouse model; 12 wk PO QD): Numeric reductions
- NAS: mice improving ≥2-pt (DIO-GAN NASH mouse model; [9]): 0%
- NAS: mice improving, Total (≥1-pt) (DIO-GAN NASH mouse model; [9]): 56%
- fat tissue mass (EchoMRI) (DIO-GAN NASH mouse model; Week 11): significantly reduced fat tissue mass; also recorded: reduced levels of fat tissue
- Scd1 expression (DIO-GAN NASH mouse model; liver RNAseq): reduced
- expression of Col1a1, Acta2, Lgals3, CD146 relative to DIO-GAN vehicle control (DIO-GAN NASH mouse model; liver RNAseq): significantly reduced expression
- Mean trough analyte concentration (SD) [1, 7]: 3.3 (1.8) ng/mL
- Mean trough analyte concentration (SD) [1, 8]: 5.8 (3.5) ng/mL
- Mean trough analyte concentration (SD) ([1]; group Compound 3 10 mg/kg (16)): 7.4 (3.8) ng/mL
